Results reported in PubChem BioAssay AID1963826 (Molecular Pharmacology Branch, DTP, NCI, 2024).

Tested on: 926638-142-R-J1-PDC complex spheroid viability
Assay: Anticancer human tumor 926638-142-R-J1-PDC patient-derived endometrial carcinoma cell line growth inhibition [POLQ]
Details: for IC50: curve of first compound; for viability, T/C: stronger effect = lower value
In short: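 Growth inhibition in 3D: complex spheroids (tumor PDC, HUVEC, MSC) treated with POLQ inhibitor combinations; where Cmax unknown, highest tested concentration 10 microM, except SN-38 at 1 microM.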

[1] = second compound 0.0316 µM, first compound 0.0316 µM
[2] = second compound 0.0316 µM, first compound 0.1 µM
[3] = second compound 0.0316 µM, first compound 0.316 µM
[4] = second compound 0.0316 µM, first compound 1 µM
[5] = second compound 0.0316 µM, first compound 3.16 µM
[6] = second compound 0.0316 µM, first compound 10 µM
[7] = second compound 0.1 µM, first compound 0.0316 µM
[8] = second compound 0.1 µM, first compound 0.1 µM
[9] = second compound 0.1 µM, first compound 0.316 µM
[10] = second compound 0.1 µM, first compound 1 µM
[11] = second compound 0.1 µM, first compound 3.16 µM
[12] = second compound 0.1 µM, first compound 10 µM
[13] = second compound 0.316 µM, first compound 0.0316 µM
[14] = second compound 0.316 µM, first compound 0.1 µM
[15] = second compound 0.316 µM, first compound 0.316 µM
[16] = second compound 0.316 µM, first compound 1 µM
[17] = second compound 0.316 µM, first compound 3.16 µM
[18] = second compound 0.316 µM, first compound 10 µM
[19] = second compound 1 µM, first compound 0.0316 µM
[20] = second compound 1 µM, first compound 0.1 µM
[21] = second compound 1 µM, first compound 0.316 µM
[22] = second compound 1 µM, first compound 1 µM
[23] = second compound 1 µM, first compound 3.16 µM
[24] = second compound 1 µM, first compound 10 µM
[25] = second compound 3.16 µM, first compound 0.0316 µM
[26] = second compound 3.16 µM, first compound 0.1 µM
[27] = second compound 3.16 µM, first compound 0.316 µM
[28] = second compound 3.16 µM, first compound 1 µM
[29] = second compound 3.16 µM, first compound 3.16 µM
[30] = second compound 3.16 µM, first compound 10 µM
[31] = second compound 10 µM, first compound 0.0316 µM
[32] = second compound 10 µM, first compound 0.1 µM
[33] = second compound 10 µM, first compound 0.316 µM
[34] = second compound 10 µM, first compound 1 µM
[35] = second compound 10 µM, first compound 3.16 µM
[36] = second compound 10 µM, first compound 10 µM
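Further: spheroids exposed to drugs for one week before readout.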
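Wherever viability, T/C is given: percent viability relative to DMSO vehicle control wells set as 100%.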

CC1COCCN1c1cc(-c2ccnn2C)c2ccnc(-c3ccn[nH]3)c2n1 (stereo unspecified) + COC1C(OC(N)=O)C(O)C(Oc2ccc3c(O)c(NC(=O)c4ccc(O)c(CC=C(C)C)c4)c(=O)oc3c2C)OC1(C)C
IC50 (second compound 0.0316 µM): 455 nM
IC50 (second compound 0.1 µM): 403 nM
IC50 (second compound 0.316 µM): 517 nM
IC50 (second compound 1 µM): 531 nM
IC50 (second compound 3.16 µM): 493 nM
IC50 (second compound 10 µM): 558 nM
viability, T/C [1]: 111%
viability, T/C [2]: 89.4%
viability, T/C [3]: 58.2%
viability, T/C [4]: 32.8%
viability, T/C [5]: 12.9%
viability, T/C [6]: 9.13%
viability, T/C [7]: 89.4%
viability, T/C [8]: 81.5%
viability, T/C [9]: 53.2%
viability, T/C [10]: 30.9%
viability, T/C [11]: 11.5%
viability, T/C [12]: 7.32%
viability, T/C [13]: 107%
viability, T/C [14]: 91.6%
viability, T/C [15]: 68.8%
viability, T/C [16]: 25.9%
viability, T/C [17]: 13.6%
viability, T/C [18]: 7.15%
viability, T/C [19]: 96.3%
viability, T/C [20]: 92.5%
viability, T/C [21]: 67.6%
viability, T/C [22]: 28.3%
viability, T/C [23]: 11.3%
viability, T/C [24]: 7.92%
viability, T/C [25]: 90.6%
viability, T/C [26]: 80.3%
viability, T/C [27]: 64.5%
viability, T/C [28]: 28.3%
viability, T/C [29]: 15.1%
viability, T/C [30]: 8.17%
viability, T/C [31]: 91.5%
viability, T/C [32]: 87.6%
viability, T/C [33]: 66.8%
viability, T/C [34]: 32.6%
viability, T/C [35]: 13.8%
viability, T/C [36]: 9.27%

CCCS(=O)(=O)Nc1ccc(F)c(C(=O)c2c[nH]c3ncc(-c4ccc(Cl)cc4)cc23)c1F + COC1C(OC(N)=O)C(O)C(Oc2ccc3c(O)c(NC(=O)c4ccc(O)c(CC=C(C)C)c4)c(=O)oc3c2C)OC1(C)C
IC50 (second compound 0.0316 µM): 8720 nM
IC50 (second compound 0.1 µM): 9760 nM
IC50 (second compound 0.316 µM): 9970 nM
IC50 (second compound 1 µM): > 10000 nM
IC50 (second compound 3.16 µM): 9780 nM
IC50 (second compound 10 µM): 9920 nM
viability, T/C [1]: 112%
viability, T/C [2]: 89.5%
viability, T/C [3]: 93.1%
viability, T/C [4]: 122%
viability, T/C [5]: 86.4%
viability, T/C [6]: 45%
viability, T/C [7]: 108%
viability, T/C [8]: 105%
viability, T/C [9]: 83.3%
viability, T/C [10]: 112%
viability, T/C [11]: 91.3%
viability, T/C [12]: 49.1%
viability, T/C [13]: 110%
viability, T/C [14]: 114%
viability, T/C [15]: 118%
viability, T/C [16]: 116%
viability, T/C [17]: 105%
viability, T/C [18]: 49.6%
viability, T/C [19]: 84%
viability, T/C [20]: 95.7%
viability, T/C [21]: 104%
viability, T/C [22]: 101%
viability, T/C [23]: 98.8%
viability, T/C [24]: 52.2%
viability, T/C [25]: 89.7%
viability, T/C [26]: 92.3%
viability, T/C [27]: 89.2%
viability, T/C [28]: 95.2%
viability, T/C [29]: 95.5%
viability, T/C [30]: 49.2%
viability, T/C [31]: 81.9%
viability, T/C [32]: 93.7%
viability, T/C [33]: 90%
viability, T/C [34]: 84%
viability, T/C [35]: 83.7%
viability, T/C [36]: 49.5%

CCc1c2c(nc3ccc(O)cc13)-c1cc3c(c(=O)n1C2)COC(=O)[C@]3(O)CC + COC1C(OC(N)=O)C(O)C(Oc2ccc3c(O)c(NC(=O)c4ccc(O)c(CC=C(C)C)c4)c(=O)oc3c2C)OC1(C)C
IC50 (second compound 0.0316 µM): 8.81 nM
IC50 (second compound 0.1 µM): 12.6 nM
IC50 (second compound 0.316 µM): 11.9 nM
IC50 (second compound 1 µM): 10.7 nM
IC50 (second compound 3.16 µM): 12.1 nM
IC50 (second compound 10 µM): 13.6 nM
viability, T/C (second compound 0.0316 µM, first compound 0.00316 µM): 79.4%
viability, T/C (second compound 0.0316 µM, first compound 0.01 µM): 42%
viability, T/C [1]: 30.3%
viability, T/C [2]: 19.2%
viability, T/C [3]: 7.89%
viability, T/C [4]: 4.74%
viability, T/C (second compound 0.1 µM, first compound 0.00316 µM): 65.7%
viability, T/C (second compound 0.1 µM, first compound 0.01 µM): 54.1%
viability, T/C [7]: 35.9%
viability, T/C [8]: 17.1%
viability, T/C [9]: 14.9%
viability, T/C [10]: 4.58%
viability, T/C (second compound 0.316 µM, first compound 0.00316 µM): 68.6%
viability, T/C (second compound 0.316 µM, first compound 0.01 µM): 54%
viability, T/C [13]: 32%
viability, T/C [14]: 19.1%
viability, T/C [15]: 9.36%
viability, T/C [16]: 4.49%
viability, T/C (second compound 1 µM, first compound 0.00316 µM): 61.8%
viability, T/C (second compound 1 µM, first compound 0.01 µM): 53.5%
viability, T/C [19]: 30.4%
viability, T/C [20]: 20.2%
viability, T/C [21]: 8.68%
viability, T/C [22]: 5.03%
viability, T/C (second compound 3.16 µM, first compound 0.00316 µM): 57.8%
viability, T/C (second compound 3.16 µM, first compound 0.01 µM): 49.7%
viability, T/C [25]: 40.5%
viability, T/C [26]: 17.7%
viability, T/C [27]: 8.91%
viability, T/C [28]: 5.57%
viability, T/C (second compound 10 µM, first compound 0.00316 µM): 59.1%
viability, T/C (second compound 10 µM, first compound 0.01 µM): 57.4%
viability, T/C [31]: 35.7%
viability, T/C [32]: 21.5%
viability, T/C [33]: 9.84%
viability, T/C [34]: 6.1%
